Data as given in US20240270748A1 (Merck Patent GmbH, priority 2021, published 2024).

Test system: YAP-TEAD interaction
Assay: SK-HEP-1 reporter assay (8xTEAD responsive elements driving NanoLuc luciferase)
Type: cell-based
Conditions: Homo sapiens, SK-HEP1, SK-HEP-1 reporter assay
Experimental: To identify inhibitors of YAP-TEAD interaction, 8×TEAD responsive elements driving the NanoLuc® luciferase gene were stably integrated into SK-HEP-1 cells (ECACC #: 91091816).
For the assay, cells were treated in duplicates with the test compounds in a 10-point dose, with the top concentration starting at 30 μM (final concentration in assay). After a 24 hour incubation at 37° C., 95% rH, and 5% CO2, a luciferase substrate/lysis reagent mix (NanoGlo™, Promega) was added to the cells, allowing the quantification of cellular luciferase activity.
Cell Media: The cells were cultured in the following media: MEM, +10% FBS, +1× GlutaMAX, +1 mM Sodium-Pyruvate, +100 μM Non-essential amino acids, +0.1 mg/ml Hygromycin. The media used for the assay was: MEM (w/o Phenol Red), +10% FBS, +1× GlutaMAX, +1 mM Sodium-Pyruvate, +100 μM Non-essential amino acids, +0.5% Pen/Strep
Reagents: The reagents used are listed below:
Cell culture: The cells were examined using an inverted microscope to check for health and cell density. To dissociate adherent cells, the monolayer of cells was washed once with pre-warmed PBS. After removing the PBS, 3 ml pre-warmed Accutase® was added to a F75 flask, dispersed evenly and the flask was allowed to sit in incubator for ˜4-5 minutes.
When a single cell suspension was obtained, 7 ml of prewarmed growth media was added and resuspended with the cells. The cell suspension was transferred to a sterile 15 ml conical centrifuge tube, and spun for 5 min at 300×g, RT. The supernatant was discarded and the pellet was resuspended in 10 ml of pre-warmed growth media.
The total cell count was determined, and 20 μl of the desired cell number was added to each well of a 384 well plate using a Multidrop Combi. The plates were then incubated for 24 hours at 37° C., 95% rH, and 5% C02.
Compound treatment: 24 hours after seeding, the cells were treated with compounds.
A 1:333 dilution of compounds, diluted in DMSO, was made to get a final concentration of 0.3% DMSO per well. To transfer the compounds to the assay plate, […] was shot from Labcyte low dead volume plates to the cell plates containing 20 μl media/well with the ECHO 555 liquid handling system.
After treatment, the cells were fed with 20 μl fresh pre-warmed assay media using a Multidrop combi.
The assay plates were then incubated for another 24 h at 37° C., 95% rH, and 5% CO2.
Luciferase readout: 24 h after treatment, the plates were taken out of the incubator and were allowed to equilibrate to RT. 30 μl of NanoGlo® reagent was added to the plates in the dark. Plates were shaken for 20 min on a Teleshake (˜1500 rpm) in the dark. The luminescence was then measured using an EnVision microplate reader. The IC50 values were generated using Genedata Screener®.

[1] = n.d. = value not detectable below threshold given in parentheses, ND = not determinable within the entire range

SMILES	IC50 (class symbols)	IC50 [1]
Cn1cc2c3cc(C4CC(n5nccn5)=NO4)ccc3n(-c3ccc(C(F)(F)F)cc3)c2n1 (stereo not drawn) [Example C38, 2-(5-{2-methyl-8-[4-(trifluoromethyl)phenyl]-2H,8H-pyrazolo[3,4-b]indol-5-yl}-4,5-dihydro-1,2-oxazol-3-yl)-2H-1,2,3-triazole]	> 10 µM	–
Cn1cc2c3cc(S(=O)(=O)O)ccc3n(-c3ccc(C(F)(F)F)cc3)c2n1 [Example C43, 2-methyl-8-[4-(trifluoromethyl)phenyl]-2H,8H-pyrazolo[3,4-b]indole-5-sulfonic acid]	0.1 to 10 µM	–
Cn1nnc2c3cc(S(=O)(=O)O)ccc3n(-c3ccc(C(F)(F)F)cc3)c21 [Example C44, 3-methyl-4-[4-(trifluoromethyl)phenyl]-3H,4H-[1,2,3]triazolo[4,5-b]indole-7-sulfonic acid]	–	> 30 µM
Cc1snc2c1c1cc(C(=O)N3CC[C@H](O)C3)ccc1n2-c1ccc(C(F)(F)F)cc1 [Example C49, (3S)-1-{3-methyl-8-[4-(trifluoromethyl)phenyl]-8H-[1,2]thiazolo [3,4-b]indole-5-carbonyl}pyrrolidin-3-ol]	0.1 to 10 µM	–
Cc1snc2c1c1cc(C(=O)N3CC[C@@H](O)C3)ccc1n2-c1ccc(C(F)(F)F)cc1 [Example C54, (3R)-1-{3-methyl-8-[4-(trifluoro-methyl)phenyl]-8H-[1,2]thiazolo[3,4-b]indole-5-carbonyl}pyrrolidin-3-ol]	0.1 to 10 µM	–
Cc1snc2c1c1cc(C(=O)NC[C@H](O)C(F)(F)F)ccc1n2-c1ccc(C(F)(F)F)cc1 [Example C55, 3-methyl-N-[(2S)-3,3,3-trifluoro-2-hydroxypropyl]-8-[4-(trifluoro-methyl)phenyl]-8H-[1,2]thiazolo[3,4-b]indole-5-carboxamide]	0.1 to 10 µM	–
CNCCC(C)NC(=O)c1ccc2c(c1)c1cn(C)nc1n2-c1ccc(C(F)(F)F)cc1 (stereo not drawn) [Example C58, 2-methyl-N-[4-(methylamino)butan-2-yl]-8-[4-(trifluoromethyl)phenyl]-2H,8H-pyrazolo[3,4-b]indole-5-carboxamide]	0.1 to 10 µM	–
Cn1cc2c3cc(C(=O)N4CC(C#N)C4)ccc3n(-c3ccc(C(F)(F)F)cc3)c2n1 [Example C59, 1-{2-methyl-8-[4-(trifluoromethyl)phenyl]-2H,8H-pyrazolo[3,4-b]indole-5-carbonyl}azetidine-3-carbonitrile]	0.1 to 10 µM	–
Cn1cc2c3cc(C(=O)N4CC(CF)C4)ccc3n(-c3ccc(C(F)(F)F)cc3)c2n1 [Example C60, 3-(fluoromethyl)-1-{2-methyl-8-[4-(trifluoromethyl)phenyl]-2H,8H-pyrazolo[3,4-b]indole-5-carbonyl}azetidine]	0.1 to 10 µM	–
Cc1snc2c1c1cc(C(=O)N[C@H](CO)c3ccccn3)ccc1n2-c1ccc(C(F)(F)F)cc1 [Example C69, N-[(1S)-2-hydroxy-1-(pyridin-2-yl)ethyl]-3-methyl-8-[4-(trifluoromethyl)phenyl]-8H-[1,2]thiazolo[3,4-b]indole-5-carboxamide]	0.1 to 10 µM	–
CCCNS(=O)(=O)c1ccc2c(c1)c1cn(C)nc1n2-c1ccc(C(F)(F)F)cc1 [Example C71, 2-methyl-N-propyl-8-[4-(trifluoromethyl)phenyl]-2H,8H-pyrazolo[3,4-b]indole-5-sulfonamide]	0.1 to 10 µM	–
Cc1snc2c1c1cc(C(=O)NCc3cnccn3)ccc1n2-c1ccc(C(F)(F)F)cc1 [Example C78, 3-methyl-N-[(pyrazin-2-yl)methyl]-8-[4-(trifluoromethyl)phenyl]-8H-[1,2]thiazolo[3,4-b]indole-5-carboxamide]	0.01 to 0.1 µM	–
Cc1snc2c1c1cc(C(=O)NCc3nccn3C)ccc1n2-c1ccc(C(F)(F)F)cc1 [Example C79, 3-methyl-N-[(1-methyl-1H-imidazol-2-yl)methyl]-8-[4-(trifluoromethyl)phenyl]-8H-[1,2]thiazolo[3,4-b]indole-5-carboxamide]	0.1 to 10 µM	–
Cc1snc2c1c1cc(C(=O)NC3(CO)CCC3)ccc1n2-c1ccc(C(F)(F)F)cc1 [Example C82, N-[1-(hydroxymethyl)cyclobutyl]-3-methyl-8-[4-(trifluoromethyl)phenyl]-8H-[1,2]thiazolo[3,4-b]indole-5-carboxamide]	0.1 to 10 µM	–
Cn1cc2c3cc(S(=O)(=O)N4CCCC4)ccc3n(-c3ccc(C(F)(F)F)cc3)c2n1 [Example C84, 1-({2-methyl-8-[4-(trifluoromethyl)phenyl]-2H,8H-pyrazolo[3,4-b]indol-5-yl}sulfonyl)pyrrolidine]	–	> 10 µM
Cc1snc2c1c1cc(C(=O)N[C@@H](CO)C(C)C)ccc1n2-c1ccc(C(F)(F)F)cc1 [Example C92, N-[(2R)-1-hydroxy-3-methylbutan-2-yl]-3-methyl-8-[4-(trifluoromethyl)phenyl]-8H-[1,2]thiazolo[3,4-b]indole-5-carboxamide]	0.01 to 0.1 µM	–
Cc1snc2c1c1cc(C(=O)N[C@H](CO)C3CCC3)ccc1n2-c1ccc(C(F)(F)F)cc1 [Example C100, N-[(1S)-1-cyclobutyl-2-hydroxyethyl]-3-methyl-8-[4-(trifluoromethyl)phenyl]-8H-[1,2]thiazolo[3,4-b]indole-5-carboxamide]	0.1 to 10 µM	–
C[C@@H](NC(=O)c1ccc2c(c1)c1cn(C)nc1n2-c1ccc(C(F)(F)F)cc1)c1ccccn1 [Example C107, 2-methyl-N-[(1R)-1-(pyridin-2-yl)ethyl]-8-[4-(trifluoromethyl)phenyl]-2H,8H-pyrazolo[3,4-b]indole-5-carboxamide]	0.1 to 10 µM	–
Cn1cc2c3nc(C(=O)N=S(C)(=O)CCO)ccc3n(-c3ccc(C(F)(F)F)cc3)c2n1 (stereo not drawn) [Example C109, N-[(2-hydroxyethyl)(methyl)oxo-λ^6-sulfanylidene]-4-methyl-7-[4-(trifluoromethyl)phenyl]-4,5,7,12-tetraazatricyclo [6.4.0.0^2,6]dodeca-1(8),2,5,9,11-pentaene-11-carboxamide]	–	> 30 µM
COCCNC(=O)c1ccc2c(n1)c1cn(C)nc1n2-c1ccc(C(F)(F)F)cc1 [Example C112, N-(2-methoxyethyl)-4-methyl-7-[4-(trifluoromethyl)phenyl]-4,5,7,12-tetraazatricyclo [6.4.0.0^2,6]dodeca-1(8),2,5,9,11-pentaene-11-carboxamide]	0.1 to 10 µM	–
Cn1cc2c3nc(C(=O)NCCO)ccc3n(-c3ccc(C(F)(F)F)cc3)c2n1 [Example C113, N-(2-hydroxyethyl)-4-methyl-7-[4-(trifluoromethyl)phenyl]-4,5,7,12-tetraazatricyclo [6.4.0.0^2,6]dodeca-1(8),2,5,9,11-pentaene-11-carboxamide]	0.1 to 10 µM	–
C[C@@H](NC(=O)c1ccc2c(n1)c1cn(C)nc1n2-c1ccc(C(F)(F)F)cc1)c1ccccn1 [Example C114, 4-methyl-N-[(1R)-1-(pyridin-2-yl)ethyl]-7-[4-(trifluoromethyl)phenyl]-4,5,7,12-tetraazatricyclo[6.4.0.0^2,6]dodeca-1(8),2,5,9,11-pentaene-11-carboxamide]	0.1 to 10 µM	–
Cn1cc2c3nc(CO)ccc3n(-c3ccc(C(F)(F)F)cc3)c2n1 [Example C116, {4-methyl-7-[4-(trifluoromethyl)phenyl]-4,5,7,12-tetraazatricyclo [6.4.0.0^2,6]dodeca-1(8),2,5,9,11-pentaen-11-yl}methanol]	0.1 to 10 µM	–
Cn1cc2c3cc(C(N)=O)cnc3n(-c3ccc(C(F)(F)F)cc3)c2n1 [Example C118, 4-methyl-7-[4-(trifluoromethyl)phenyl]-4,5,7,9-tetraazatricyclo[6.4.0.0^2,6]dodeca-1(8),2,5,9,11-pentaene-11-carboxamide]	0.1 to 10 µM	–
C[C@H](NC(=O)c1ccc2c(c1)c1cn(C)nc1n2-c1ccc(C(F)(F)F)cc1)c1ccncc1 [Example C127, 2-methyl-N-[(1S)-1-(pyridin-4-yl)ethyl]-8-[4-(trifluoromethyl)phenyl]-2H,8H-pyrazolo[3,4-b]indole-5-carboxamide]	0.1 to 10 µM	–
Cn1cnc2c1c1cc(CO)ccc1n2-c1ccc(C(F)(F)F)cc1 [Example C132, {1-methyl-4-[4-(trifluoromethyl)phenyl]-1H,4H-imidazo[4,5-b]indol-7-yl}methanol]	0.1 to 10 µM	–
Cn1cc2c3cc(C(=O)NC[C@H](O)C(F)(F)F)ccc3n(-c3ccc(C(F)(F)F)cc3)c2n1 [Example C133, 2-methyl-N-[(2S)-3,3,3-trifluoro-2-hydroxypropyl]-8-[4-(trifluoromethyl)phenyl]-2H,8H-pyrazolo[3,4-b]indole-5-carboxamide]	0.1 to 10 µM	–
